Laboratory results published in ChEMBL document CHEMBL5137065, “Recent Advances with KDM4 Inhibitors and Potential Applications” (J Med Chem, 2022).

Legend:
[1] = target: T1, Lysine-specific demethylase 4A (Homo sapiens, UniProt O75164)
T1 sequence (O75164 whole entry): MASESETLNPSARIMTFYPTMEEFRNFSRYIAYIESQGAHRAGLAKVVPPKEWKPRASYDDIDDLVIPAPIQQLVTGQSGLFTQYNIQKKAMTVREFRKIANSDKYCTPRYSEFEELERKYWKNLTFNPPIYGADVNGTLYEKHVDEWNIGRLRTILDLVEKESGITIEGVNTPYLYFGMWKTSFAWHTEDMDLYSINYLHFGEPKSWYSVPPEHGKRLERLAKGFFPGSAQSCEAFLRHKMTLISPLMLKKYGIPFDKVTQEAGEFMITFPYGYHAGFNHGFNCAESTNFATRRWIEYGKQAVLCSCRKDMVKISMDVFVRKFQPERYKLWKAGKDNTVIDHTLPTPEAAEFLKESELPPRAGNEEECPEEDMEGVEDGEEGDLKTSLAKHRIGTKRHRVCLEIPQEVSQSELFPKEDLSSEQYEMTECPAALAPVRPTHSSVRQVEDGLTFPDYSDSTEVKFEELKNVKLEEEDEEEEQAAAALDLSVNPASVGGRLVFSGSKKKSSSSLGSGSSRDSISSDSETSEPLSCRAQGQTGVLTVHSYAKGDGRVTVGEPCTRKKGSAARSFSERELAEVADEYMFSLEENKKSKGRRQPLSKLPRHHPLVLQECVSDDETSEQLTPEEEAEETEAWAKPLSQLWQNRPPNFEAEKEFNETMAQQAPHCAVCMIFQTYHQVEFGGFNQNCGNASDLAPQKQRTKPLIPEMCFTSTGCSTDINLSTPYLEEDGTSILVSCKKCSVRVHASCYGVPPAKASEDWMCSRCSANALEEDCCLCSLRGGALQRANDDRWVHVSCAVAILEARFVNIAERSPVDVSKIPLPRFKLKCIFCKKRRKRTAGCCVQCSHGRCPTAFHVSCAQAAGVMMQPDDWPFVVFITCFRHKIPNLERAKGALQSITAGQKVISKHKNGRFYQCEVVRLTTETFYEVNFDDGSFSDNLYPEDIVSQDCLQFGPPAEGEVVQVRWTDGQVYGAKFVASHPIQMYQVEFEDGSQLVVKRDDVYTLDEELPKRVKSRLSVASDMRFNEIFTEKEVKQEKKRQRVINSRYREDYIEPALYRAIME

[2] = target: T2, Lysine-specific demethylase 4B (Homo sapiens, UniProt O94953); assay: Inhibition of human KDM4B (1 to 347 residues) catalytic domain measured formaldehyde dehydrogenase (FDH)-coupled fluorescence assay
T2 sequence (O94953 whole entry): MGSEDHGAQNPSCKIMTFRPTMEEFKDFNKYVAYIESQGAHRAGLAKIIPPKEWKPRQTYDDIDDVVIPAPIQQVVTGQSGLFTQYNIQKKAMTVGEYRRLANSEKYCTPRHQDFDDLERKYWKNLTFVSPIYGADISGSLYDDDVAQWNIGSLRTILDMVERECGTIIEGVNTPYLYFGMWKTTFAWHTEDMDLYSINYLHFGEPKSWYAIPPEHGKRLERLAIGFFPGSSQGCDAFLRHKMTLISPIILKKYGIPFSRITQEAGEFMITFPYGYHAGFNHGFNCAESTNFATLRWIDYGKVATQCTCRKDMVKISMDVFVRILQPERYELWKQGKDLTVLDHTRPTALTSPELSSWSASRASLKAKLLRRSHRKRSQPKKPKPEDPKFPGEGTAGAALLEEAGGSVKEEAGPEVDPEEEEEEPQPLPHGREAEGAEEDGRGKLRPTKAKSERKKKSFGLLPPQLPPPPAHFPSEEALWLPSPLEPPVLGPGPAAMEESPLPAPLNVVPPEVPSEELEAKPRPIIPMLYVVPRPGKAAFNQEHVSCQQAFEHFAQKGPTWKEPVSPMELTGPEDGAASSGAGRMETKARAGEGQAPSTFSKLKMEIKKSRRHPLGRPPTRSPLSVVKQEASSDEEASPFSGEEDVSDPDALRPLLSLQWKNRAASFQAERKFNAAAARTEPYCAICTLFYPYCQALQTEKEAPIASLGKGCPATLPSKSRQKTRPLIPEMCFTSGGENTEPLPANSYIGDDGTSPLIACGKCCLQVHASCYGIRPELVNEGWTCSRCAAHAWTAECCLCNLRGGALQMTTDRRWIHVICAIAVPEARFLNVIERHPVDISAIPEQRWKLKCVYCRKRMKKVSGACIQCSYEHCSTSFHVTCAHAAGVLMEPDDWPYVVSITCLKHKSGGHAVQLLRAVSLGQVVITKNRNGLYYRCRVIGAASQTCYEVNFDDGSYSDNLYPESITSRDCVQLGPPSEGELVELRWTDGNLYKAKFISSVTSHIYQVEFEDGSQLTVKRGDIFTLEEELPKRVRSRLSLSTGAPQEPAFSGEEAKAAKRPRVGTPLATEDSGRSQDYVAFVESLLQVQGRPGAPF

[3] = target: T3, Lysine-specific demethylase 4D (Homo sapiens, UniProt Q6B0I6); assay: Inhibition of human KDM4D (1 to 378 residues) catalytic domain measured formaldehyde dehydrogenase (FDH)-coupled fluorescence assay
T3 sequence (Q6B0I6 whole entry): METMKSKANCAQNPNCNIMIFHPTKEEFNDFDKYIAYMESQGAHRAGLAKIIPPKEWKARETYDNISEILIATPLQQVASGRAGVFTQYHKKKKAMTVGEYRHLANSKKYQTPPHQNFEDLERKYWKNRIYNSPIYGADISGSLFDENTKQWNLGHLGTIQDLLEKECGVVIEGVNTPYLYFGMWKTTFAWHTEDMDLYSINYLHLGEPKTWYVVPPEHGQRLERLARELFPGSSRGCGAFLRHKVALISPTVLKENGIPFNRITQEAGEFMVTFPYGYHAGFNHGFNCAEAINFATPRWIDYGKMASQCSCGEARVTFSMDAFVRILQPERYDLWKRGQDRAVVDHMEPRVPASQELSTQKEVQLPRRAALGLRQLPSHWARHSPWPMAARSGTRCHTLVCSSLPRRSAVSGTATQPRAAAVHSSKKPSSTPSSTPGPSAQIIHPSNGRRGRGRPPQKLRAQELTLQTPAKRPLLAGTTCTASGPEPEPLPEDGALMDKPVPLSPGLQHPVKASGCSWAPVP

Measured: IC50

COC(=O)Cc1cc(O)n(-c2nc3ccccc3[nH]2)n1
4 µM: [1] | [2] | [3]
